{
  "source": "patent US8399438B2",
  "about": "“2α-methyl-19-nor-1α-hydroxy-homopregnacalciferol and its uses” (Wisconsin Alumni Research Foundation, priority 2004, dated 2013)",
  "key": {"[1]": {"molecular_target": "T1, full-length recombinant rat vitamin D receptor (Rattus norvegicus, UniProt P13053)", "T1 construct": "Full-length recombinant rat receptor was expressed in E. coli; histidine tag (C); made in house; host or cells: E. coli BL21 (DE3) Codon Plus RIL", "T1 sequence (P13053 1-423)": "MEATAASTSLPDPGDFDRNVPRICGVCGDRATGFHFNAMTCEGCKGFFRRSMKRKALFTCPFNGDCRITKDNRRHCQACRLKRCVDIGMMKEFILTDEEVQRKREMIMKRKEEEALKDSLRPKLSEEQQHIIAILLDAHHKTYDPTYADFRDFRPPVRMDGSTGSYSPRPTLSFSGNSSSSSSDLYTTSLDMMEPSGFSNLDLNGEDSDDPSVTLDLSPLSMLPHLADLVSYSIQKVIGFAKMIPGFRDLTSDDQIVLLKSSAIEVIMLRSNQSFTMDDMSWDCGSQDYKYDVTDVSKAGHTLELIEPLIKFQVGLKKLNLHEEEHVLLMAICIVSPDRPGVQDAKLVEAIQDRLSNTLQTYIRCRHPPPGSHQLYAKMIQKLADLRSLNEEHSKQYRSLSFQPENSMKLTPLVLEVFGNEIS", "experiment": "Vitamin D receptor binding, competition with [3H]-1,25(OH)2D3", "settings": "FIG. 1", "method": "Full-length recombinant rat receptor was expressed in E. coli BL21 (DE3) Codon Plus RIL cells and purified to homogeneity using two different column chromatography systems. The first system was a nickel affinity resin that utilizes the C-terminal histidine tag on this protein. The protein that was eluted from this resin was further purified using ion exchange chromatography (S-Sepharose Fast Flow). Aliquots of the purified protein were quick frozen in liquid nitrogen and stored at −80° C. until use. For use in binding assays, the protein was diluted in TEDK50 (50 mM Tris, 1.5 mM EDTA, pH7.4, 5 mM DTT, 150 mM KCl) with 0.1% Chaps detergent. The receptor protein and ligand concentration were optimized such that no more than 20% of the added radiolabeled ligand was bound to the receptor.\nRadiolabeled and unlabeled ligands were added to 100 mcl of the diluted protein at a final ethanol concentration of ≦10%, mixed and incubated overnight on ice to reach binding equilibrium. The following day, 100 mcl of hydroxylapatite slurry (50%) was added to each tube and mixed at 10-minute intervals for 30 minutes. The hydroxylapaptite was collected by centrifugation and then washed three times with Tris-EDTA buffer (50 mM Tris, 1.5 mM EDTA, pH 7.4) containing 0.5% Titron X-100. […] Total binding was determined from the tubes containing only radiolabeled ligand."}, "[2]": {"system": "Human promyelocytic leukemia (HL60) cells", "experiment": "HL-60 differentiation (nitro blue tetrazolium reduction)", "assay_type": "cell-based", "settings": "FIG. 2; for EC50: HL60 cells, 4 days, NBT reduction", "method": "The study drugs were dissolved in ethanol and the concentrations determined using UV spectrophotometry. Serial dilutions were prepared so that a range of drug concentrations could be tested without changing the final concentration of ethanol (≦0.2%) present in the cell cultures.\nHuman promyelocytic leukemia (HL60) cells were grown in RPMI-1640 medium containing 10% fetal bovine serum. The cells were incubated at 37° C. in the presence of 5% CO2.\nHL60 cells were plated at 1.2×10^5 cells/ml. Eighteen hours after plating, cells in duplicate were treated with drug. Four days later, the cells were harvested and a nitro blue tetrazolium reduction assay was performed (Collins et al., 1979; J. Exp. Med. 149:969-974). The percentage of differentiated cells was determined by counting a total of 200 cells and recording the number that contained intracellular black-blue formazan deposits. Verification of differentiation to monocytic cells was determined by measuring phagocytic activity (data not shown)."}, "[3]": {"system": "24-hydroxylase (24Ohase) gene promoter in ROS 17/2.8 (bone) cells", "experiment": "In vitro transcription assay (24-hydroxylase promoter luciferase reporter)", "assay_type": "cell-based", "settings": "ROS 17/2.8 cells, 16 h, FIG. 3, read-out: EC50, transcriptional activity in bone cells", "method": "Transcription activity was measured in ROS 17/2.8 (bone) cells that were stably transfected with a 24-hydroxylase (24Ohase) gene promoter upstream of a luciferase reporter gene (Arbour et al., 1998). Cells were given a range of doses. Sixteen hours after dosing the cells were harvested and luciferase activities were measured using a luminometer.\nRLU=relative luciferase units."}, "[4]": {"system": "Sprague-Dawley rats", "experiment": "Bone calcium mobilization (serum calcium) in vitamin D-deficient rats", "assay_type": "in vivo, rat", "settings": "for bone calcium mobilization (serum calcium): rats on 0.02% Ca diet", "method": "(§1) Male, weanling Sprague-Dawley rats were placed on Diet 11 (0.47% Ca) diet+AEK for one week followed by Diet 11 (0.02% Ca)+AEK for 3 weeks. The rats were then switched to a diet containing 0.47% Ca for one week followed by two weeks on a diet containing 0.02% Ca. Dose administration began during the last week on 0.02% calcium diet. Four consecutive ip doses were given approximately 24 hours apart. Twenty-four hours after the last dose, blood was collected from the severed neck and the concentration of serum calcium determined as a measure of bone calcium mobilization. The first 10 cm of the intestine was also collected for intestinal calcium transport analysis using the everted gut sac method."}, "[5]": {"system": "Sprague-Dawley rats", "experiment": "Intestinal calcium transport (everted gut sac method) in vitamin D-deficient rats", "assay_type": "in vivo, rat", "settings": "for intestinal calcium transport: everted gut sac", "method": "as §1"}, "[6]": {"system": "Sprague-Dawley rats", "experiment": "PTH suppression (bioactive serum PTH, ELISA)", "assay_type": "in vivo, rat", "method": "Adult, female Sprague-Dawley rats were obtained from Harlan (Madison, Wis.). Upon receipt, the animals were identified by individual tail marks. Animals were housed in suspended, stainless steel, wire-bottom cages. Each cage contained one animal. The animal rooms were maintained at a temperature of 68 to 72° F. and a relative humidity of 25 to 75%. The holding rooms were set to provide 12 hours of light per day. Water and a purified rodent diet (Suda et al., Purified Rodent Diet-Diet 11) containing […] 0.3% phosphorus and fat soluble vitamins A, D, E and K were provided ad libitum. Treatment Groups Animals were randomly assigned to treatment groups (5 animals/group). All doses were administered intraperitoneally in 100 microliters of propylene glycol. Four to seven consecutive doses were given approximately 24 hours apart. Dosing was initiated after the animals had been allowed to acclimate for at least one week. Dose Preparation Control Material Negative Control Material […] The solution was mixed and then stored at 2 to 8° C. The analogs were prepared by first determining the concentration of an ethanol stock solution using UV spectrophotometry (extinction coefficient=42,000; λmax=252 nm). The analog solutions were then volumetrically added to propylene glycol so that there was less than 5% ethanol in the final solution. The solution was mixed and stored at 2 to 8° C. […] Serum PTH Levels. Twenty-four hours after the final dose, blood was collected from the tail artery and the concentration of bioactive serum PTH was measured using the rat BioActive Intact PTH ELISA Kit from Immutopics, Inc. (San Clemente, Calif.). Serum Calcium Analysis Twenty-four hours after the final dose, approximately 1 ml of blood was collected from the tail artery of each experimental animal. The blood was allowed to coagulate at room temperature and then centrifuged at 3000×g for 15 minutes. The serum was transferred to a polypropylene tube and stored frozen at −20° C. The level of calcium was determined by diluting the serum into 0.1% lanthum chloride and measuring the absorbance on an atomic absorption spectrophotometer (Perkin Elmer Model 3110, Shelton, Conn.)."}},
  "data": [
    {"smiles": "CC(C)C1CCC2C(=CC=C3CC(O)C(C)C(O)C3)CCCC21C", "note": "(stereo not drawn) [2α-methylP, 2α-methyl-19-nor-1α-hydroxy-homopregnacalciferol]", "values": [
      {"measurement": "VDR binding compared to 1,25-(OH)2D3 (in words)", "setting": "[1]", "value": "bound equally well"},
      {"measurement": "Ki", "setting": "[1]; full-length recombinant rat VDR", "value": 0.94, "unit": "nM"},
      {"measurement": "HL-60 cell differentiation potency compared to 1,25(OH)2D3 (in words)", "setting": "[2]", "value": "almost as potent as 1,25(OH)2D3"},
      {"measurement": "EC50", "setting": "[2]; Homo sapiens, HL-60, 96 h", "value": 38, "unit": "nM"},
      {"measurement": "EC50", "setting": "[3]", "value": 3.3, "unit": "nM"},
      {"measurement": "bone calcium mobilization (serum calcium)", "setting": "[4]; 87 pmol/day ip, 4 consecutive days", "value": "did not result in mobilization of bone calcium"},
      {"measurement": "bone calcium mobilization (serum calcium)", "setting": "[4]; 260 pmol/day ip, 4 consecutive days", "value": "without any substantial effect"},
      {"measurement": "bone calcium mobilization (serum calcium)", "setting": "[4]; 780 pmol/day ip, 4 consecutive days", "value": "without any substantial effect"},
      {"measurement": "bone calcium mobilization (serum calcium)", "setting": "[4]; 2340 pmol/day ip, 4 consecutive days", "value": "without any substantial effect"},
      {"measurement": "bone calcium mobilization activity compared to 1,25(OH)2D3 (in words)", "setting": "[4]; overall, FIG. 4", "value": "very little bone calcium mobilization activity"},
      {"measurement": "intestinal calcium transport", "setting": "[5]; 87 pmol/day ip", "value": "does not promote intestinal calcium transport"},
      {"measurement": "intestinal calcium transport", "setting": "[5]; 260 pmol/day ip", "value": "does not promote intestinal calcium transport"},
      {"measurement": "intestinal calcium transport", "setting": "[5]; 780 pmol/day ip", "value": "does not promote intestinal calcium transport"},
      {"measurement": "intestinal calcium transport", "setting": "[5]; 2340 pmol/day ip", "value": "does not promote intestinal calcium transport"},
      {"measurement": "intestinal calcium transport activity compared to 1,25(OH)2D3 (in words)", "setting": "[5]; overall, FIG. 5", "value": "very little activity"},
      {"measurement": "PTH suppression", "setting": "[6]; 500 pmol/day ip, 7 consecutive days", "value": "about 20%"},
      {"measurement": "PTH suppression", "setting": "[6]; 1500 pmol/day ip, 7 consecutive days", "value": "about 20%"},
      {"measurement": "PTH suppression", "setting": "[6]; 4500 pmol/day ip, 7 consecutive days", "value": "about 60%"},
      {"measurement": "PTH suppression compared to 1,25(OH)2D3 (in words)", "setting": "[6]; FIG. 6", "value": "not as potently as 1,25(OH)2D3"}
    ]},
    {"smiles": "C=C1/C(=C\\C=C2/CCC[C@]3(C)[C@@H]([C@H](C)CCCC(C)(C)O)CC[C@@H]23)C[C@@H](O)C[C@@H]1O", "note": "[1,25(OH)2D3, 1α,25-dihydroxyvitamin D3, reference compound]", "values": [
      {"measurement": "EC50", "setting": "[2]", "value": 3.6, "unit": "nM"},
      {"measurement": "EC50", "setting": "[3]", "value": 0.29, "unit": "nM"},
      {"measurement": "bone calcium mobilization (serum calcium)", "setting": "[4]; all dosages tested", "value": "increased serum calcium levels"},
      {"measurement": "intestinal calcium transport", "setting": "[5]; 260 pmol/day ip", "value": "promotes a significant increase"},
      {"measurement": "PTH suppression", "setting": "[6]; 100 pmol/day ip, 4 consecutive days", "value": 100, "unit": "%"}
    ]}
  ]
}
